# Source: patent US12427134B2, “Methods of reducing the risk of cardiovascular events in a subject with atrial fibrillation and/or atrial flutter” (priority 2019, dated 2025)
# System: hypertriglyceridemic patients with cardiovascular disease or at high risk for cardiovascular disease
# Assay: REDUCE-IT: primary and key secondary endpoints adjusted for baseline covariates (stepwise selection) and time varying post-baseline lipids
# Type: in vivo, human
# Details: ITT
# Method: The primary efficacy analysis was performed on the ITT population. A sensitivity analysis was performed using the mITT and PP populations. As a sensitivity analysis, patients who discontinued study drug prematurely were censored for the primary composite endpoint analysis on the date of drug discontinuation. The primary analysis was repeated using this censoring rule for the mITT population. As a supportive analysis, a multivariable, stratified Cox proportional hazards model was constructed for the primary endpoint to evaluate the treatment effect adjusting for important covariates.
# As an additional exploratory analysis, the relationship between post-baseline biomarker values and treatment effects with the primary and key secondary endpoints were assessed by adding biomarker values (for example, at 4 months, or at 1 year, etc.) as time-dependent covariates in the Cox proportional hazards model. Diagnostic plots for the proportional hazard's assumption was evaluated. Weight was measured at the screening visit and at all follow-up visits, including the last visit of the study. Waist circumference was measured at the randomization visit (Visit 2; Day 0), Visit 5 (Day 720) and the last visit of the study. Descriptive statistics were presented by visit and treatment group for baseline, post-treatment change from baseline, and the percent change from baseline. Analysis methods for repeated measurements were used to compare percent change from baseline between treatments.
# In the main analysis of the primary endpoint for the REDUCE-IT trial, treatment was the only covariate employed in the stratified Cox proportional hazards model. Stratification variables included CV risk category at baseline (primary prevention cohort and secondary prevention cohort), use of ezetimibe at baseline (yes/no), and geographical region (Westernized, Eastern European, and Asia Pacific).
# The model included treatment and any of the following variables, identified by a stepwise selection procedure: (1) sex; (2) age at baseline (<65 or ≥65 years); (3) race (white and non-white); (4) presence/absence of diabetes at baseline; (5) baseline LDL-C (by tertile); (6) baseline HDL-C (by tertile); (7) baseline non-HDL-C (by tertile); (8) baseline TG (by tertile); (9) baseline hsCRP (≤3 mg/Land >3 mg/L); (10) baseline apo B (by tertile); (11) baseline RLP-C (by tertile); (12) Hopkins calculated LDL-C at baseline (by tertile); (13) waist/height ratio at baseline; (14) waist circumference at baseline.
# The SAS proportional hazard regression procedure was used to automatically conduct the stepwise selection of the important baseline covariates. The minimum p-value for the inclusion of the baseline covariate into the proportional hazard model was 0.05, and these selected baseline covariates with p<0.10 would remain in the final model as important baseline covariates after all baseline covariates were evaluated by the model. The HR, 95% CI, and p-value comparing the two treatment groups, and the HR, 95% CI, and p-value for adjusting each selected important baseline covariate in the final model were presented.
# As an additional exploratory analysis, the relationships between post-baseline lipid values and treatment effects with the primary and key secondary endpoints were assessed by adding lipid values (at 4 months, 1 year, etc.) as time varying covariates in the Cox proportional hazards model. Diagnostic plots for the proportional hazard's assumption was evaluated.
# [1] = Overall (with all selected covariates)
# [2] = adjusting baseline covariate: Age at baseline (<65 or ≥65 years)
# [3] = adjusting baseline covariate: Baseline hsCRP (≤3 mg/L or >3 mg/L)
# [4] = adjusting baseline covariate: Baseline non-HDL-C (by tertile)
# [5] = adjusting baseline covariate: Presence/absence of diabetes at baseline
# [6] = adjusting baseline covariate: Sex
# [7] = adjusting time varying covariate HDL-C (mg/dL)
# [8] = adjusting time varying covariate LDL-C (Hopkins) (mg/dL)
# [9] = adjusting time varying covariate LDL-C (ultracentrifugation) (mg/dL)
# [10] = adjusting time varying covariate LDL-C derived (mg/dL)
# [11] = adjusting time varying covariate RLP-C (mg/dL)
# [12] = adjusting time varying covariate TG (mg/dL)
# [13] = adjusting time varying covariate apo B (mg/dL)
# [14] = adjusting time varying covariate hsCRP (mg/dL)
smiles,measurement,setting,value
"CC/C=C\C/C=C\C/C=C\C/C=C\C/C=C\CCCC(=O)OCC [AMR101, eicosapentaenoic acid ethyl ester]","Time to key secondary endpoint, HR (95% CI) AMR101/Placebo",[1],0.730 (0.647-0.825)
same,"Time to primary endpoint, HR (95% CI) AMR101/Placebo",[1],0.750 (0.680-0.828)
same,"Time to key secondary endpoint, HR (95% CI) AMR101/Placebo",[2],0.739 (0.654-0.834)
same,"Time to primary endpoint, HR (95% CI) AMR101/Placebo",[2],0.755 (0.684-0.833)
same,"Time to key secondary endpoint, HR (95% CI) AMR101/Placebo",[3],0.731 (0.648-0.826)
same,"Time to primary endpoint, HR (95% CI) AMR101/Placebo",[3],0.750 (0.679-0.828)
same,"Time to key secondary endpoint, HR (95% CI) AMR101/Placebo",[4],0.738 (0.654-0.833)
same,"Time to primary endpoint, HR (95% CI) AMR101/Placebo",[4],0.755 (0.684-0.833)
same,"Time to key secondary endpoint, HR (95% CI) AMR101/Placebo",[5],0.731 (0.647-0.825)
same,"Time to primary endpoint, HR (95% CI) AMR101/Placebo",[5],0.750 (0.679-0.827)
same,"Time to key secondary endpoint, HR (95% CI) AMR101/Placebo",[6],0.734 (0.650-0.829)
same,"Time to primary endpoint, HR (95% CI) AMR101/Placebo",[6],0.751 (0.680-0.829)
same,"Time to key secondary endpoint, HR (95% CI) for Treatment (AMR101 vs Placebo)",[7],0.710 (0.629-0.802)
same,"Time to primary endpoint, HR (95% CI) for Treatment (AMR101 vs Placebo)",[7],0.730 (0.661-0.806)
same,"Time to primary endpoint, HR (95% CI) for Treatment (AMR101 vs Placebo)",adjusting time varying covariate LDL-C (Friedewald) (mg/dL),0.760 (0.688-0.839)
same,"Time to key secondary endpoint, HR (95% CI) for Treatment (AMR101 vs Placebo)",[8],0.761 (0.674-0.860)
same,"Time to primary endpoint, HR (95% CI) for Treatment (AMR101 vs Placebo)",[8],0.772 (0.699-0.852)
same,"Time to key secondary endpoint, HR (95% CI) for Treatment (AMR101 vs Placebo)",[9],0.737 (0.652-0.834)
same,"Time to primary endpoint, HR (95% CI) for Treatment (AMR101 vs Placebo)",[9],0.759 (0.687-0.839)
same,"Time to key secondary endpoint, HR (95% CI) for Treatment (AMR101 vs Placebo)",[10],0.740 (0.655-0.836)
same,"Time to primary endpoint, HR (95% CI) for Treatment (AMR101 vs Placebo)",[10],0.752 (0.681-0.830)
same,"Time to key secondary endpoint, HR (95% CI) for Treatment (AMR101 vs Placebo)",[11],0.768 (0.679-0.867)
same,"Time to primary endpoint, HR (95% CI) for Treatment (AMR101 vs Placebo)",[11],0.784 (0.709-0.866)
same,"Time to key secondary endpoint, HR (95% CI) for Treatment (AMR101 vs Placebo)",[12],0.754 (0.668-0.851)
same,"Time to primary endpoint, HR (95% CI) for Treatment (AMR101 vs Placebo)",[12],0.772 (0.700-0.853)
same,"Time to key secondary endpoint, HR (95% CI) for Treatment (AMR101 vs Placebo)",[13],0.752 (0.665-0.850)
same,"Time to primary endpoint, HR (95% CI) for Treatment (AMR101 vs Placebo)",[13],0.762 (0.690-0.842)
same,"Time to key secondary endpoint, HR (95% CI) for Treatment (AMR101 vs Placebo)",[14],0.745 (0.660-0.841)
same,"Time to primary endpoint, HR (95% CI) for Treatment (AMR101 vs Placebo)",[14],0.758 (0.686-0.836)
same,"Time to key secondary endpoint, HR (95% CI) for Treatment (AMR101 vs Placebo)",adjusting time varying covariate non-HDL-C (mg/dL),0.773 (0.684-0.874)
